{"source": "paper PMC9577195", "about": "“Pharmacokinetics, bioavailability, and plasma protein binding study of glytrexate, a novel multitarget antifolate” (Frontiers in Pharmacology, 2022)", "key": {"KB tumor cells": {"test_system": "KB tumor cells", "design": "method as in Xing et al., 2017", "details": "positive control, ref Xing et al., 2017, read-out: IC50, inhibitory action on KB tumor cells; cited from earlier work"}, "[1]": {"design": "method as in Pangeni et al., 2018", "details": "rat, ref Pangeni et al., 2018, cited from earlier work"}, "human plasma proteins": {"test_system": "human plasma proteins", "design": "method as in Robinson et al., 2004", "details": "ref Robinson et al., 2004; cited from earlier work"}, "[2]": {"assay": "Pharmacokinetics and bioavailability in rats after single oral and intravenous doses", "assay_type": "in vivo, Sprague-Dawley rats", "details": "rat, pemetrexed 20 mg/kg vs glytrexate 25 mg/kg"}}}
{"smiles": "Nc1nc2[nH]cc(CCc3ccc(C(=O)N[C@@H](CCC(=O)O)C(=O)O)cc3)c2c(=O)[nH]1", "note": "[pemetrexed]", "values": [{"measurement": "IC50", "setting": "KB tumor cells", "result": 70, "unit": "nM"}, {"measurement": "AUC after intravenous administration", "setting": "[1]; intravenous 10 mg/kg", "result": "31.3 ± 5.34", "unit": "μg⋅h/mL"}, {"measurement": "T1/2 after intravenous administration", "setting": "[1]; intravenous", "result": "34.4 ± 4.26", "unit": "min"}, {"measurement": "AUC after oral administration", "setting": "[1]; oral 20 mg/kg", "result": "7.55 ± 0.938", "unit": "μg⋅h/mL"}, {"measurement": "oral bioavailability", "setting": "[1]", "result": "12.0 ± 1.45", "unit": "%"}, {"measurement": "human plasma protein binding rate", "setting": "human plasma proteins", "result": 81, "unit": "%"}, {"measurement": "oral AUC of pemetrexed relative to oral glytrexate", "setting": "[2]", "result": "approximately 12 fold"}]}
